From patent EP0920441B1, “7ALPHA-(EPSILON-AMINOALKYL)-ESTRATRIENES, PROCESS FOR PREPARING THE SAME, PHARMACEUTICAL PREPARATIONS CONTAINING SAID 7ALPHA-(EPSILON-AMINOALKYL)-ESTRATRIENES AND THEIR USE FOR PREPARING MEDICAMENT” (SCHERING AKTIENGESELLSCHAFT, priority 1996, dated 1998)

Tests used:
Uterus = Uterus growth test in the infantile rat, p.o. (antiestrogenic / antiuterotrophic activity); assay type: in vivo, Ratte; conditions: 0,1 mg/kg p.o. once daily for 3 days with 0,5 µg Estradiolbenzoat s.c., inhibition of uterus weight versus EB control
From the text: 1. Uteruswachstumstest bei der infantilen Ratte (antiestrogene Wirkung)
Bei Nagern reagiert der Uterus auf die Applikation von estrogenen mit einer Gewichtszunahme (sowohl Proliferation als auch Wassereinlagerung). Dieses Wachstum ist durch gleichzeitige Gäbe antiestrogen-wirkender Verbindungen dosisabhängig zu hemmen. * = Dimethylbenzanthrazen
Infantile weibliche Ratten im Gewicht von 35-45 g bei Versuchsbeginn, pro Dosis 5-6 Tiere.
Für die p.o. Applikation werden die Substanzen in 1 Teil Ethanol (E) gelöst und mit 9 Teilen Erdnußöl (EÖ) aufgefüllt.
Die gerade von den Müttern abgesetzten jungen Ratten werden zur Eingewöhnung einen Tag vor Behandlungsbeginn geliefert und sofort mit Futter - auch in dem Tierkäfig - versorgt. Die Behandlung erfolgt dann täglich einmal über 3 Tage in Kombination mit 0,5 µg Estradiolbenzoat (EB). EB wird immer subcutan (s.c.) appliziert, während die Testsubstanz p.o. (peroral) verabreicht wird. 24 Stunden nach der letzten Applikation werden die Tiere gewogen, getötet und die Uteri entnommen. Von den präparierten Uteri werden die Feuchtgewichte (ohne Inhalt) ermittelt.
• negative Kontrolle: Vehikel (E/EÖ), 0,2 ml/Tier/Tag • positive Kontrolle: 0,5 µg EB/0,1 ml/Tier/Tag
Von den relativen Organgewichten (mg/100 g Körpergewicht) werden für jede Gruppe die Mittelwerte mit Standardabweichung (X+SD), sowie die Signifikanz der Unterschiede zur Kontrollgruppe (EB) im Dunnett-Test (p<0.05) ermittelt. Die Berechnung der Hemmung (in %) gegenüber der EB-Kontrolle erfolgt mit einem Programm. Die relativen Wirksamkeiten der Prüfsubstanzen werden durch eine Kovarianz- und Regressionsanalyse ermittelt.

humanem Estrogenrezeptor = molecular target: T1, humanem Estrogenrezeptor (Homo sapiens, UniProt P03372); experiment: Transactivation assay for antiestrogenic activity in HeLa cells (HEGO + Vit-TK-CAT reporter); assay type: cell-based; conditions: Hela cells transiently transfected with HEGO and Vit-TK-CAT; in presence of 0,1 nM Estradiol; read-out: IC50 [nM] Hela-Zellen
T1 construct: expressed in transfected cells; host or cells: HeLa cells, transiently transfected with HEGO
T1 sequence (P03372 1-595): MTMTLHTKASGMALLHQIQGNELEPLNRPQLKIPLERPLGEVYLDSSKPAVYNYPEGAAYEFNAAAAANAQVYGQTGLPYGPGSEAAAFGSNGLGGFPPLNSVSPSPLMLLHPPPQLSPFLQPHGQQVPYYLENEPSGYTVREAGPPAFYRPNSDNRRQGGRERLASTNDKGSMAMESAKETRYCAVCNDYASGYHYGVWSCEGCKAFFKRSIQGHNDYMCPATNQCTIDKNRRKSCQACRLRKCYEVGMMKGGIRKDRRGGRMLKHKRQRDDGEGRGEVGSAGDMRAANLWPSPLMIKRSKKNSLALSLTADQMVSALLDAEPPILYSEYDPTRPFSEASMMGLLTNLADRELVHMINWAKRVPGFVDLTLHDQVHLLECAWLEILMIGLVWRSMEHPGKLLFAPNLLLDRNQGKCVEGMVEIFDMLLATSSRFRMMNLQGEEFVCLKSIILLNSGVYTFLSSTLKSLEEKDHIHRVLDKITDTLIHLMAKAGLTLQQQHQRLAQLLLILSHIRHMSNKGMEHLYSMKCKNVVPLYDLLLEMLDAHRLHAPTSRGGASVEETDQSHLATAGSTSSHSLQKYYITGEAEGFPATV
From the text: Die antiestrogene Wirkung der erfindungsgemäßen Verbindungen wurde in Transaktivierungsassays bestimmt [Demirpence E., Duchesne M.-J., Badia E., Gagne D. und Pons M.: MVLN Cells: A Bioluminescent MCF-7-Derived Cell Line to study the Modulation of Estrogenic Activity; J. Steroid. Molec.
Die Hela-Zellen sind transient mit humanem Estrogenrezeptor-Expressionsvektor (HEGO) und Vit-TK-CAT Reportergen und die MVLN-Zellen stabil mit dem Reportergen Vit-TK-LUC transfiziert. Es wurde die […] Wirkstärke in Gegenwart von 0,1 nM Estradiol bestimmt.

[1] = test system: DMBA-induzierten Mammatumors; experiment: DMBA tumour model in the rat (influence on tumour growth); assay type: in vivo, Ratte
From the text: Beeinflussung des Tumorwachstums im DMBA*-Modell bei der Ratte (DMBA-Tumormodell)
Das Wachstum des DMBA-induzierten Mammatumors der Ratte ist weitgehend von Estrogenen und Prolaktin abhängig. Wirksame Antiestrogene, Antigestagene und Aromatasehemmer führen zur Hemmung des Tumorwachsturns. Substanzen, die antigonadotrope und androgene Eigenschaften besitzen, entfalten ebenfalls tumorhemmende Wirkung.
45 - 47 Tage alte weibliche Ratten (Sprague-Dawley, Züchter ZIH oder Möllegard), pro Gruppe 8 - 10 Tiere. *9,10-Dimethyl-1,2-benzanthracen
Die Tiere erhalten einmalig 10 mg DMBA oral. Anschließend werden die Tiere einmal wöchentlich palpatorisch auf Tumorentwicklung untersucht. 6 bis 10 Wochen nach der DMBA-Behandlung entwickeln sich etwa 1 bis 10 Tumoren pro Tier. Die Tumorgröße wird einmal wöchentlich mit Hilfe einer Schiebelehre bestimmt. Hat mindestens ein Tumor eine definierte Größe (150 mm^2 Tumorfläche) erreicht, erfolgt die Ovariektomie der Tiere bzw. beginnt die Behandlung der Tiere mit der Testsubstanz. Die Behandlung erfolgt zumeist täglich über ca. 28 Tage (Details Abwicklung siehe Versuchsplan). Die Tumorgröße wird weiterhin 1 x /Woche ermittelt.
Die Gesamttumorgröße pro Tier wird vor Beginn der Behandlung ermittelt (Vorwerte). Für jede Gruppe wird dann der Mittelwert der prozentualen Veränderungen der Tumorgröße, bezogen auf die initialen Werte, errechnet. […]

[2] = Antiestrogenic activity (test not specified)

| Compound | 0,1 mg/kg p.o. % Hemmung (Uterus) [%] | IC50 (humanem Estrogenrezeptor) [nM] | Hemmung des Tumorwachstums ([1]; oral dose 3 mg/kg/Tag (Figur 1)) | antiestrogene Wirksamkeit [2] | Hemmung des Tumorwachstums ([1]; oral dose 10 mg/kg/Tag (Figur 1)) |
| --- | --- | --- | --- | --- | --- |
| C[C@]1(O)CC[C@H]2[C@@H]3[C@H](CCCCCN4CCC[C@H]4CSCCCC(F)(F)C(F)(F)F)Cc4cc(O)ccc4[C@H]3[C@@H](F)C[C@@]21C [Beispiel 31, 11β-Fluor-17α-methyl-7α-{5-[(2S)-2-(4,4,5,5,5-pentafluorpentylthiomethyl)-pyrrolidin-1-yl]-pentyl}-estra-1,3,5(10)-trien-3,17β-diol] | 71 | 0.1 | – | – | – |
| CN(CCCCC[C@@H]1Cc2cc(O)ccc2[C@H]2CC[C@@]3(C)[C@@H](C[C@@H](F)[C@]3(C)O)[C@H]12)CCCSCCCC(F)(F)C(F)(F)F [Beispiel 15, 16α-Fluor-17α-methyl-7α-{5-[N-methyl-N-3-(4,4,5,5,5-pentafluorpentylthio)-propylamino]-pentyl}-estra-1,3,5(10)-trien-3,17β-diol] | 33 | 0.06 | – | – | – |
| CN(CCCCC[C@@H]1Cc2cc(O)ccc2[C@H]2CC[C@@]3(C)C(=CC[C@@H]3O)[C@H]12)CCCS(=O)(=O)CCCC(F)(F)C(F)(F)F [Beispiel 25, 7α-{5-[N-Methyl-N-3-(4,4,5,5,5-pentafluorpentansulfonyl)-propylamino]-pentyl}-estra-1,3,5(10),14-tetraen-3,17β-diol] | – | 0.06 | – | – | – |
| CN(CCCCC[C@@H]1Cc2cc(O)ccc2[C@@H]2[C@@H]1[C@@H]1CC[C@](C)(O)[C@@]1(C)C[C@@H]2F)CCCSCCCC(F)(F)C(F)(F)F [Beispiel 36, 11β-Fluor-17α-methyl-7α-{5-[N-methyl-N-3-(4,4,5,5,5-pentafluorpentylthio)-propylamino]-pentyl}-estra-1,3,5(10)-trien-3,17β-diol] | 62 | 0.05 | – | – | – |
| C[C@]12C[C@H](F)[C@@H]3c4ccc(O)cc4C[C@@H](CCCCCN4CCC[C@H]4CSCCCC(F)(F)C(F)(F)F)[C@H]3[C@@H]1CC[C@@H]2O [Beispiel 29, 11β-Fluor-7α-{5-[2-(4,4,5,5,5-pentafluorpentylthiomethyl)-pyrrolidin-1-yl]-pentyl}-estra-1,3,5(10)-trien-3,17β-diol] | 80 | 0.13 | stärker als eine orale Dosis von 10 mg/kg/Tag 7α-[9-(4,4,5,5,5-Pentafluorpentansulfinyl)-nonyl]-estra-1,3,5(10)-trien-3,17β-diol | – | – |
| CN(CCCCC[C@@H]1Cc2cc(O)ccc2[C@@H]2[C@@H]1[C@@H]1CCC(=O)[C@@]1(C)C[C@@H]2F)CCCSCCCC(F)(F)C(F)(F)F [Beispiel 40, 11β-Fluor-7α-{5-[N-methyl-N-3-{4,4,5,5,5-pentafluorpentylthio)-propylamino]-pentyl}-3-hydroxy-estra-1,3,5(10)-trien-17-on] | – | – | – | stark antiestrogen wirksam | – |
| C[C@]12CC[C@@H]3c4ccc(O)cc4C[C@@H](CCCCCCCCC[S+]([O-])CCCC(F)(F)C(F)(F)F)[C@H]3[C@@H]1CC[C@@H]2O (stereo partly drawn) [ZM 182 780, 7α-[9-(4,4,5,5,5-Pentafluorpentansulfinyl)-nonyl]-estra-1,3,5(10)-trien-3,17β-diol, reference compound] | 8 | – | – | – | nur eine geringfügige Wirkung im Vergleich zur intakten Kontrolle |
| CN(CCCCC[C@@H]1Cc2cc(O)ccc2[C@@H]2[C@@H]1[C@@H]1CC[C@H](O)[C@@]1(C)C[C@@H]2F)CCCSCCCC(F)(F)C(F)(F)F [Beispiel 12, 11β-Fluor-7α-{5-(N-methyl-N-3-(4,4,5,5,5-pentafluorpentylthio)-propytamino]-pentyl}-estra-1,3,5(10)-trien-3,17β-diol] | 91 | 0.06 | – | – | – |
| CN(CCCCC[C@@H]1Cc2cc(O)ccc2[C@H]2CC[C@@]3(C)[C@@H](C[C@@H](F)[C@]3(C)O)[C@H]12)CCCS(=O)(=O)CCCC(F)(F)C(F)(F)F [Beispiel 18, 16α-Fluor-17α-methyl-7α-{5-[N-methyl-N-3-(4,4,5,5,5-pentafluorpentansulfonyl)-propylamino]-pentyl}-estra-1,3,5(10)-trien-3,17β-diol] | 16 | 0.05 | – | – | – |
